For five compounds, IC50 results are on record in US12209102B2, “Heterocyclic compounds and uses thereof” (Kumquat Biosciences Inc., priority 2022, dated 2025).

Experiment [1] concerns SW620 cells. Put plainly: Ras cellular assay, growth of cells with K-Ras G12V mutation (CellTiter-Glo). In kind it is cell-based. To be noted: Homo sapiens, SW-620; cell growth, Example 9, G12V mutation; read-out: IC50 against SW620 cells. The method, boiled down:
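SW620 (K-Ras G12V) cells, e.g. 800/well in RPMI-1640 with 10% heat-inactivated FBS on standard or ultra-low attachment plates, were dosed the day after plating with e.g. a 10-point 3-fold series. Viability by CellTiter-Glo luminescence about 6 days later; IC50 from four-parameter fit.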

Experiment [2] concerns the target T1, K-Ras G12V (Homo sapiens, UniProt P01116, G12V).
T1 construct: made in house; host or cells: E. coli BL21 (DE3)
In words: HTRF resonance energy transfer assay, K-Ras G12V / SOS1 interaction. In kind it is biochemical. Conditions: HTRF assay of Example 5; read-out: IC50 against K-Ras G12V. The method, boiled down:
(§1)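 Read-out: HTRF 665/620 nm ratio (excitation 337 nm) after roughly 10 min or longer incubation, used to derive IC50. Donor anti-GST-Eu on GST-K-Ras; acceptor anti-6His-XL665 on His-hSOS1. Duplicate dose series from 10 μM down to 0.01 μM.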

Experiment [3] deals with T2, K-Ras G12S (Homo sapiens, UniProt P01116, G12S).
T2 construct: made in house; host or cells: E. coli BL21 (DE3)
T2 sequence (P01116 1-188 isoform P01116-2 G12S): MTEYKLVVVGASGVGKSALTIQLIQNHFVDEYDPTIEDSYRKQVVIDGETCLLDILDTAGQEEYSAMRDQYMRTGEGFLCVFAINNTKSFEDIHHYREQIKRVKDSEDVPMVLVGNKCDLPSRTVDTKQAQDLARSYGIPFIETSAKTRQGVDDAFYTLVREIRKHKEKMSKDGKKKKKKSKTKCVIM
In words: HTRF resonance energy transfer assay, K-Ras G12S / SOS1 interaction. In kind it is biochemical. Conditions: HTRF assay of Example 5; read-out: IC50 against K-Ras G12S. The method, boiled down:
as §1

Experiment [4] deals with T3, K-Ras G12D (Homo sapiens, UniProt P01116, G12D).
T3 construct: made in house; host or cells: E. coli BL21 (DE3)
T3 sequence (P01116 1-188 isoform P01116-2 G12D): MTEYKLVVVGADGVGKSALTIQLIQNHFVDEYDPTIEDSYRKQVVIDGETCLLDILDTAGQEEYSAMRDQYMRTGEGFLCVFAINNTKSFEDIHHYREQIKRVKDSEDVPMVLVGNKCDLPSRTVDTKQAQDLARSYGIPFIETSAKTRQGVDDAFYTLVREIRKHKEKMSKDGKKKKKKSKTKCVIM
Put plainly: HTRF resonance energy transfer assay, K-Ras G12D / SOS1 interaction. In kind it is biochemical. Conditions: HTRF assay of Example 5; read-out: IC50 against K-Ras G12D. In outline:
as §1

For experiment [5], the system named is A549 cells. In words: Ras cellular assay, growth of cells with K-Ras G12S mutation (CellTiter-Glo). In kind it is cell-based. Conditions: Homo sapiens, cell growth, Example 9, G12S mutation, read-out: IC50 against A549 cells. The method, boiled down: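 A549 cells (K-Ras G12S) in RPMI-1640 with 10% heat-inactivated FBS, seeded e.g. 800 per well in standard or ultra-low-attachment 384-well plates, treated next day with a dilution series (e.g. 10-point, 3-fold). Viability by CellTiter-Glo luminescence about 6 days later; IC50 from four-parameter fit.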

Experiment [6] concerns the target T4, K-Ras WT (Homo sapiens, UniProt P01116).
T4 construct: made in house; host or cells: E. coli BL21 (DE3)
Put plainly: HTRF resonance energy transfer assay, K-Ras WT / SOS1 interaction. In kind it is biochemical. Conditions: HTRF assay of Example 5; read-out: IC50 against K-Ras WT. In outline: as §1

SMILES strings stand for the structures.

T1 sequence (P01116 1-188 isoform P01116-2 G12V): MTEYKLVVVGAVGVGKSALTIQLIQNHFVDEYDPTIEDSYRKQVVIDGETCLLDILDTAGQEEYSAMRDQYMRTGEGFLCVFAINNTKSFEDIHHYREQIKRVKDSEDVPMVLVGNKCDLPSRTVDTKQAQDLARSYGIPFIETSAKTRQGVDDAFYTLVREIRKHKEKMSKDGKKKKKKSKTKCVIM
T4 sequence (P01116 1-188 isoform P01116-2): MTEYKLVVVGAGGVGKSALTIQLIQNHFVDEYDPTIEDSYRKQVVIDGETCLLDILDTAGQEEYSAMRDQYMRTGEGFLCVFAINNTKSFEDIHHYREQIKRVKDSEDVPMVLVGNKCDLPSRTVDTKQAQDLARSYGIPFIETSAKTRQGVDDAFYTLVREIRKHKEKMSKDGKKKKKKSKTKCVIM

Take `N#CCCCN1CCOc2c(Cl)c(-c3ccc(F)c4sc(N)c(C#N)c34)c(F)c3nc(OC[C@@]45CCCN4C[C@H](F)C5)nc1c23` [Compound 837, 2-amino-4-(8-chloro-4-(3-cyanopropyl)-10-fluoro-2-(((2R,7aS)-2-fluorotetrahydro-1H-pyrrolizin-7a(5H)-yl)methoxy)-5,6-dihydro-4H-[1,4]oxazepino[5,6,7-de]quinazolin-9-yl)-7-fluorobenzo[b]thiophene-3-carbonitrile]: the IC50 is under 5000 nM in experiment [1]; under 100 nM in experiment [2]; under 100 nM in experiment [3]; under 100 nM in experiment [4]; under 5000 nM in experiment [5]; under 100 nM in experiment [6].

For `N#Cc1c(N)sc2c(F)ccc(-c3c(Cl)c4c5c(nc(OC[C@@]67CCCN6C[C@H](F)C7)nc5c3F)N(C3CCCCC3O)CCO4)c12` (stereo partly drawn) [Compound 838, 2-amino-4-(8-chloro-10-fluoro-2-(((2R,7aS)-2-fluorotetrahydro-1H-pyrrolizin-7a(5H)-yl)methoxy)-4-(2-hydroxycyclohexyl)-5,6-dihydro-4H-[1,4]oxazepino[5,6,7-de]quinazolin-9-yl)-7-fluorobenzo[b]thiophene-3-carbonitrile], the IC50 was under 5000 nM in experiment [1]; under 100 nM in experiment [2]; under 100 nM in experiment [3]; under 100 nM in experiment [4]; under 5000 nM in experiment [5]; under 100 nM in experiment [6].

On to `C[C@H](Oc1nc2c3c(c(Cl)c(-c4ccc(F)c5sc(N)c(C#N)c45)c(F)c3n1)OCCN2C1CCN(C(=O)C2CC2C#N)CC1)[C@@H]1CCCN1C` (stereo partly drawn) [Compound 839, 2-amino-4-(8-chloro-4-(1-(trans-2-cyanocyclopropane-1-carbonyl)piperidin-4-yl)-10-fluoro-2-((S)-1-((S)-1-methylpyrrolidin-2-yl)ethoxy)-5,6-dihydro-4H-[1,4]oxazepino[5,6,7-de]quinazolin-9-yl)-7-fluorobenzo[b]thiophene-3-carbonitrile], for which the IC50 was under 5000 nM in experiment [1]; under 100 nM in experiment [2]; under 100 nM in experiment [3]; under 100 nM in experiment [4]; under 5000 nM in experiment [5]; under 100 nM in experiment [6].

As to `CNC(=O)C1CCCC(N2CCOc3c(Cl)c(-c4ccc(F)c5sc(N)c(C#N)c45)c(F)c4nc(OC[C@@]56CCCN5C[C@H](F)C6)nc2c34)C1` (stereo partly drawn) [Compound 841, 3-(9-(2-amino-3-cyano-7-fluorobenzo[b]thiophen-4-yl)-8-chloro-10-fluoro-2-(((2R,7aS)-2-fluorotetrahydro-1H-pyrrolizin-7a(5H)-yl)methoxy)-5,6-dihydro-4H-[1,4]oxazepino[5,6,7-de]quinazolin-4-yl)-N-methylcyclohexane-1-carboxamide], the IC50 in experiment [1] is under 5000 nM; in experiment [2], under 100 nM; in experiment [3] it was under 100 nM; in experiment [4], under 100 nM; in experiment [5] it was under 5000 nM; in experiment [6] it was under 100 nM.

As to `CNC(=O)C1CC(N2CCOc3c(Cl)c(-c4ccc(F)c5sc(N)c(C#N)c45)c(F)c4nc(OC[C@@]56CCCN5C[C@H](F)C6)nc2c34)C1` (stereo partly drawn) [Compound 859, 3-(9-(2-amino-3-cyano-7-fluorobenzo[b]thiophen-4-yl)-8-chloro-10-fluoro-2-(((2R,7aS)-2-fluorotetrahydro-1H-pyrrolizin-7a(5H)-yl)methoxy)-5,6-dihydro-4H-[1,4]oxazepino[5,6,7-de]quinazolin-4-yl)-N-methylcyclobutane-1-carboxamide], the IC50 in experiment [1] is under 5000 nM; in experiment [2], under 100 nM; in experiment [3], under 100 nM; in experiment [4] it was under 100 nM; in experiment [5], under 5000 nM; in experiment [6], under 100 nM.
